# Counter-ions that a name gives are not always drawn.
# How the values were obtained:
# [1] = Thermal stability test (open containers at 60° C., purity by HPLC); type: physicochemical; conditions: mean of three replicates; for Purity (%), Day 31: HPLC purity after 30 days in open container at 60° C.; for Purity (%), Initial point: HPLC purity before storage
# Method: The chromatographic conditions for HPLC purity testing of the product involved in the present invention are as follows:
# Column: Ultimate XB-C18, column length: 150 mm, inner diameter: 4.6 mm, particle size: 5 μm
# Flow rate: 1.2 mL/min; column temperature: 30° C.; wavelength: 210 nm; injection volume: 20 μL; solvent: acetonitrile-water (volume ratio 5:95)
# Mobile phase A: acetonitrile-0.02 mol/L potassium dihydrogen phosphate (adjusted to pH 2.5 with phosphoric acid) (volume ratio 5:95)
# Mobile phase B: methanol-acetonitrile-0.02 mol/L potassium dihydrogen phosphate (adjusted to pH 2.5 with phosphoric acid) (volume ratio 7:63:30)
# The proportions of mobile phases A and B over time are as follows:
# (§1) “Absence of deliquescence” refers to that no moisture absorption is observed on the sample surface, “slight deliquescence” refers to that moisture absorption is observed on the sample surface, and “obvious deliquescence” refers to that lubrication can be observed on the sample surface. • (2) Thermal stability test: The product A and crystal form I were stored separately in open containers at 60° C. and tested for storage stability after 30 days (Day 31). Samples at initial and after 30 days of storage were tested for purity by HPLC with three replicates per sample and averaged and the results are presented in the following table.
# [2] = biological target: T1, H^+K^+-ATPase (Sus scrofa, UniProt P19156); test: Inhibition of H^+K^+-ATPase in microsomal vesicles of porcine gastric mucosa; type: biochemical; conditions: pH 6.8, inorganic phosphorus readout
# T1 construct: H^+K^+ATPase was extracted from porcine gastric mucosal microsomal vesicles by iPhase; tissue iPhase; host or cells: porcine gastric mucosa, microsomal vesicles
# Source text: Test method: H^+K^+-ATPase is an ATPase localized in gastric mucosal parietal cells and activated exclusively by K^+. In this experiment, H^+K^+-ATPase was extracted from the microsomal vesicles of porcine gastric mucosa, and ATPase could decompose ATP to generate ADP and inorganic phosphorus. The test article combined H^+K^+-ATPase and inhibited its activity. The level of ATPase activity was judged by measuring the amount of inorganic phosphorus, and the inhibitory effect of the test article was determined.
# H^+K^+ATPase was extracted from porcine gastric mucosal microsomal vesicles by iPhase.
# 100 mM TRIS-HCL (PH 6.8): 100 μL 1M TRIS-HCL was added to 900 μl ddH2O and mixed well.
# 37.5 mM MgCl2: 50 mg MgCl2 was added to […] ddH2O and mixed well. 200 mM KCl: 500 mg KCl was added to 33.5 mL ddH2O and mixed well. 10 mM nigericin and valinomycin: 669 μl and 890 μL DMSO were added and mixed, dispensed into 1 μL nigericin and 5 μl valinomycin per tube, and stored at −20° C.
# 0.1 mg/ml microsomal vesicles: Protein concentrations were determined upon arrival and dispensed, stored at −80° C., and diluted with 5 mM TRIS-HCL for use.
# Control compound: TAK438 was prepared as a 10 mM stock solution in DMSO and dispensed in 1 μL per tube.
# Test compound: Product A and crystal form I were prepared as 10 mM stock solutions in ddH2O, and dispensed in 1 μL per tube.
# With 20 μM (or 40 μM) as the highest concentration, the control compound and the test compound were diluted stepwise 3-fold with DMSO and ddH2O, respectively, to obtain the samples to be tested at 6 (or 7 or 8) concentration gradients.
# Water bath at 37° C. for 30 min, 16.5 μL ATP added and mixed well, and water bath at 37° C. for 30 min
# The chromogenic agent was prepared based on the instructions of *H^+K^+ ATP kit (Nanjing Jiancheng).
# Per the enzymatic reaction volume of 150 μL, 45 μl of chromogen was added and mixed well, allowed to stand for 2 min, and the absorbance light signal at 660 nm was read by a microplate reader.
# • 1) The inhibition rate was calculated according to the following formula: […]
# [3] = test system: histamine-induced gastric acid secretion; test: Effect on histamine-induced gastric acid secretion in rats; type: in vivo, SD rats
# Source text: Surgical modeling: Rats were anesthetized with intraperitoneal injection of ethyl carbamate at a dose of 1.5 g/kg. Rats under complete anesthesia were shaved from the neck and abdomen, and were intubated to maintain airway patency during surgery. The cardiac perfusion tube was orally inserted about 1 cm into the stomach of rats, and the other end of the cardiac perfusion tube was connected to a constant flow pump. A small incision was made below the xiphoid cartilage to find the duodenum, an incision was made transversely, the end of the collection tube of gastric pyloric samples was passed along the duodenum into the stomach about 1 cm through the wound, the duodenum was tightened with the collection tube of gastric pyloric samples with a suture, and the other end of the duodenal incision was tightened. Gastric lavage remnants were rapidly flushed along the esophago-cardia cannula with 150 mL of 37° C. prewarmed saline, outflowed through the collection tube of gastric pylorus samples, and the abdominal wall was sutured to the skin. Perfusion was continued with normal saline at a rate of 1 mL/min for 30 min, the other end of the col-lection tube for gastric pyloric samples was left in vitro, gastric juice samples were collected in conical flasks (one sample per 20 min of col-lection), and two basal gastric juice samples were collected, at which time basal gastric acid secretion reached a steady state.
# Histamine-induced gastric acid secretion: Histamine was administered to rats by continuous tail vein injection with a microinjection pump at a dose of 20 μmol/kg/hr. Gastric acid was collected after 80 min, and after three time points, histamine secretion reached a steady state in rats, which was grouped according to the value of gastric acid secretion after histamine administration in rats, and candidate drugs or vehicle controls were administered based on the protocol. […] The details are as follows:
# The required amount of Vonoprazan fumarate was weighed, added with an appropriate amount of 0.5% CMC-Na, stirred, sonicated to obtain a homogeneous suspension, and diluted sequentially to the corresponding concentration according to the concentration required by the protocol.
# The required amount of HW-N2001 was weighed, added with appropriate physiological saline, and mixed thoroughly to obtain a clear solution, and the pH was adjusted to a range of 3.2 to 3.8. Based on the concentrations required by the protocol, the corresponding concentrations were successively diluted.
# One hundred and eighteen of 130 SD rats in good health were selected and randomly divided into 8 groups according to body weight and base-line value after histamine administration after the end of the adaptation period, as detailed in the table below.
# Collected gastric juice samples were taken and titrated with 0.01 N sodium hydroxide solution by a basic burette to PH7 as the endpoint, with the phenolphthalein indicator as a color indicator. The titration volume was measured and the acid secretion is calculated according to the following formula: acid secretion (μEq)=volume of NaOH (mL)×10^−3×0.01 mol/L×10^6.
# Two basal gastric juice samples were collected, and an infusion extension tube prematurely inhaled with histamine was connected to the indwelling needle of tail vein in rats after basal gastric acid levels were stabilized. The syringe pump was opened, and histamine was calculated according to the dose of 20 μmol/kg/hr and the intravenous drip rate of each animal in the syringe pump was set. Gastric acid samples after histamine administration were collected after 80 minutes of continuous injection of histamine solution.
# [4] = Deliquescence test (storage at 40° C. and 75% relative humidity); type: physicochemical; set-up: key: “Absence of deliquescence” refers to that no moisture absorption is observed on the sample surface; Slight: “slight deliquescence” refers to that moisture absorption is observed on the sample surface; Obvious: “obvious deliquescence” refers to that lubrication can be observed on the sample surface
# Method: • (1) Deliquescence test: The product A, crystal form I, and TAK-438 were stored at 40° C. and 75% relative humidity and observed for deliquescence for 30 days, with results recorded every 10 days as detailed in the table below.
# as §1
# [5] = 0.375 mg/kg i.v., 60 min after administration
# [6] = 0.375 mg/kg i.v., 180 min after administration
# [7] = 0.75 mg/kg i.v., 20 min after administration
# [8] = 1.5 mg/kg i.v., 20 min after administration
# [9] = 1.5 mg/kg i.v., 80 min after administration
# [10] = 1.5 mg/kg i.v., 180 min after administration
# [11] = 2 mg/kg i.d., 60 min after administration
# [12] = 2 mg/kg i.d., 180 min after administration
# [13] = 4 mg/kg i.d., 40 min after administration
# [14] = 4 mg/kg i.d., 180 min after administration
# T1 sequence (P19156 2-1034 limits assumed): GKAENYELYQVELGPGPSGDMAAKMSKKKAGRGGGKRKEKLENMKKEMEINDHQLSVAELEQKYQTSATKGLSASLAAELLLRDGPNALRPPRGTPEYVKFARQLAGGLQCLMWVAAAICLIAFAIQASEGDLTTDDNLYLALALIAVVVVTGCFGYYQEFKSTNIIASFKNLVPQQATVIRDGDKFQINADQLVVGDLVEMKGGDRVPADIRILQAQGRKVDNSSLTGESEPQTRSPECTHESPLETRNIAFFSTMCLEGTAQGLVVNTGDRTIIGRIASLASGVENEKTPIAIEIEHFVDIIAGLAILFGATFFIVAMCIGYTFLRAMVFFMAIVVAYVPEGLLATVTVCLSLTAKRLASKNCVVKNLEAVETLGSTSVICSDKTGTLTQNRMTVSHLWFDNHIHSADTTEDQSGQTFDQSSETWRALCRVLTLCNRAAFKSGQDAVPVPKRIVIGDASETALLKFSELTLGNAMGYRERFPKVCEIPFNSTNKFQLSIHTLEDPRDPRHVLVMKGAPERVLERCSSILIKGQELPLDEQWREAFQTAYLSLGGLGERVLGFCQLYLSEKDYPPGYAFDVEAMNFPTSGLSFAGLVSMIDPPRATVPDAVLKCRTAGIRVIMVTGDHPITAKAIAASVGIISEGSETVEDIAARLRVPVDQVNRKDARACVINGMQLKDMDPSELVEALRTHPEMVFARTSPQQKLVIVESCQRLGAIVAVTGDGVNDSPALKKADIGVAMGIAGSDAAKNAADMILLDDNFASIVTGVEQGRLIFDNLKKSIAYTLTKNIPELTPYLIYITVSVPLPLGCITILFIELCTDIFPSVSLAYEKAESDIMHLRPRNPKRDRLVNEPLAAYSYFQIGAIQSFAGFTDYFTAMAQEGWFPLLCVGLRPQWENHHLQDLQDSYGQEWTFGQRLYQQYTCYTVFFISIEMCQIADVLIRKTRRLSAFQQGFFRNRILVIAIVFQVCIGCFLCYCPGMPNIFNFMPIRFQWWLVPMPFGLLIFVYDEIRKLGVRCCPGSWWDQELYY
# T1 sequence (P18434 whole entry partner): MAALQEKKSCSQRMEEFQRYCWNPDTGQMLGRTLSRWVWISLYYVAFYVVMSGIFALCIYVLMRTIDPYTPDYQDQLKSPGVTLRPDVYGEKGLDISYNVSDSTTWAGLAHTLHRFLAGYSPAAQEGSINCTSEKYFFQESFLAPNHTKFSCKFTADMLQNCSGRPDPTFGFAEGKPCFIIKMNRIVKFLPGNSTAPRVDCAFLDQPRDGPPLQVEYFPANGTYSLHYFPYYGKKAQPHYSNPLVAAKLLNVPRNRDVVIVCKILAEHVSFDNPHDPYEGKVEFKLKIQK
molecule,measurement,setting,value
5-(2-fluorophenyl)-N-methyl-1-(3-pyridylsulfonyl)-1H-pyrrole-3-methylamine pyroglutamate [Crystal form I],"Purity (%), Day 31",[1],99.2%
same,"Purity (%), Initial point",[1],99.8%
same,IC50,[2],40.4 nM
same,Gastric acid secretion,[3]; [5],39.15±8.54 μEq HCl/20 min
same,Inhibition rate of gastric acid secretion,[3]; [5],4.34%±1.28
same,Gastric acid secretion,[3]; [6],28.46±5.71 μEq HCl/20 min
same,Inhibition rate of gastric acid secretion,[3]; [6],27.52%±1.43
same,Gastric acid secretion,[3]; [7],37.53±9.87 μEq HCl/20 min
same,Inhibition rate of gastric acid secretion,[3]; [7],11.6%±0.82
same,Inhibition rate of gastric acid secretion,"[3]; 0.75 mg/kg i.v., 180 min after administration",73.68%±1.47
same,Gastric acid secretion,[3]; [8],25.67±10.15 μEq HCl
same,Inhibition rate of gastric acid secretion,[3]; [8],33.28%±0
same,Gastric acid secretion,[3]; [9],3.4±1.18 μEq HCl
same,Inhibition rate of gastric acid secretion,[3]; [9],89.64%±0
same,Gastric acid secretion,[3]; [10],2.2±0.56 μEq HCl
same,Inhibition rate of gastric acid secretion,[3]; [10],93.56%±0.09
same,Time after administration at which pharmacodynamic effect reached a stable state,[3]; 0.75 and 1.5 mg/kg i.v.,60 to 100 min
same,Time after administration at which pharmacodynamic effect was gradually exerted,[3]; 0.75 and 1.5 mg/kg i.v.,20 min
same,ID50,"[3]; intravenous administration, 180 min after administration",0.53 mg/kg
same,"Deliquescence, Day 10",[4],Absence of
same,"Deliquescence, Day 20",[4],Slight
same,"Deliquescence, Day 30",[4],Obvious
5-(2-fluorophenyl)-N-methyl-1-(3-pyridylsulfonyl)-1H-pyrrole-3-methylamine pyroglutamate [Product A],"Purity (%), Day 31",[1],94.6%
same,"Purity (%), Initial point",[1],98.0%
same,IC50,[2],53.4 nM
same,"Deliquescence, Day 10",[4],Slight
same,"Deliquescence, Day 20",[4],Obvious
same,"Deliquescence, Day 30",[4],Obvious
"CNCc1cc(-c2ccccc2F)n(S(=O)(=O)c2cccnc2)c1 [TAK-438, Vonoprazan fumarate]",IC50,[2],41.5 nM
same,Gastric acid secretion after administration vs vehicle,"[3]; 1 mg/kg i.d., rats",not significantly decreased
same,Time after administration at which pharmacodynamic effect was gradually exerted,[3]; 2 mg/kg i.d.,60 min
same,Gastric acid secretion,[3]; [11],33.21±15.63 μEq HCl/20 min
same,Inhibition rate of gastric acid secretion,[3]; [11],13.71%±2.12
same,Gastric acid secretion,[3]; [12],16.21±14.46 μEq HCl/20 min
same,Inhibition rate of gastric acid secretion,[3]; [12],57.48%±2.27
same,Time after administration at which pharmacodynamic effect was gradually exerted,[3]; 4 mg/kg i.d.,140 min
same,Gastric acid secretion,[3]; [13],33.18±11.15 μEq HCl/20 min
same,Inhibition rate of gastric acid secretion,[3]; [13],12.47%±1.13
same,Gastric acid secretion,[3]; [14],4.41±4.02 μEq HCl/20 min
same,Inhibition rate of gastric acid secretion,[3]; [14],87.03%±0.81
same,Time at which strongest efficacy was reached,[3]; duodenal administration,180 min
same,ID50,"[3]; duodenal administration, 180 min",1.87 mg/kg
same,"Deliquescence, Day 10",[4],Absence of
same,"Deliquescence, Day 20",[4],Absence of
same,"Deliquescence, Day 30",[4],Absence of
